Consider 8 molecules from US20120121591A1 (priority 2009, published 2012).

Holding throughout (type): cell-based
For assay [1], the system named is IL-2 secretion from T cells in human whole blood. To be noted: read-out: WB (IL-2) IC50 (nM, Avg).
For assay [2], the system named is IFN-g secretion from T cells in human whole blood. To be noted: read-out: WB (IFNg) IC50 (nM, Avg).
For a further assay, the target named is hKv1.3 (Homo sapiens, UniProt P22001). The experiment in a line: cell-based. Conditions: Kv1.3 (IWQ) IC50 (nM, Avg).

SMILES strings stand for the structures.

hKv1.3, sequence (P22001 whole entry): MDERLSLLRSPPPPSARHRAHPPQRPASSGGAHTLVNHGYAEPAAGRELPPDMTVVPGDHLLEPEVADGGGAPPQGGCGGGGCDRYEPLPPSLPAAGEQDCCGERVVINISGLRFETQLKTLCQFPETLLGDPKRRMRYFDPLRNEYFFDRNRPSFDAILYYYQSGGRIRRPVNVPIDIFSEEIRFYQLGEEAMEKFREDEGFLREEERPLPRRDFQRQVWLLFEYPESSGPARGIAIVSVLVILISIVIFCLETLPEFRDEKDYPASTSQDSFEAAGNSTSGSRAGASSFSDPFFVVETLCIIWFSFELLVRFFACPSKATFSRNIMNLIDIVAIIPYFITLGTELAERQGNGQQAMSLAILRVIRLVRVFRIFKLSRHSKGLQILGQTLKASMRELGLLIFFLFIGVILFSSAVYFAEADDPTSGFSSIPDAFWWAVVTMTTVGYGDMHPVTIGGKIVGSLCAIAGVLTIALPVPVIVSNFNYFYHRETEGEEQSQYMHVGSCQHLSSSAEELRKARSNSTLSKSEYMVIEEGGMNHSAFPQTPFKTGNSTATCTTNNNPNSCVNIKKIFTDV

On to `CC[C@H](C)[C@@H]1NC(=O)[C@@H](NC(=O)[C@H](CO)NC(=O)[C@@H](N)CCCNC(=N)N)CSSC[C@@H](C(N)=O)NC(=O)[C@H]([C@@H](C)O)NC(=O)CNC(=O)[C@@H]2CSSC[C@@H]3NC(=O)[C@H](CCCCN)NC(=O)[C@H](Cc4ccccc4)NC(=O)[C@H](C)NC(=O)[C@H]([C@@H](C)O)NC(=O)[C@H](CSSC[C@H](NC(=O)[C@H](Cc4ccccc4)NC(=O)[C@H](CO)NC(=O)[C@H](CC(C)C)NC(=O)[C@H](CCCNC(=N)N)NC(=O)[C@H](Cc4ccc(O)cc4)NC(=O)[C@H](CCCCN)NC(=O)[C@H](CCSC)NC(=O)[C@H](CO)NC(=O)[C@H](Cc4c[nH]cn4)NC(=O)[C@H](CCC(=O)O)NC3=O)C(=O)N[C@@H](CCCNC(=N)N)C(=O)N[C@@H](CCCCN)C(=O)N[C@@H]([C@@H](C)O)C(=O)N2)NC(=O)[C@H](CCCNC(=N)N)NC(=O)[C@H](CO)NC(=O)[C@H](CCCCN)NC(=O)[C@@H]2CCCN2C(=O)[C@H]([C@@H](C)CC)NC(=O)[C@H]([C@@H](C)O)NC(=O)[C@H](CC(=O)O)NC1=O` [[Lys16, Glu18]ShK-amide], for which the IC50 came to 0.119 nM in assay [1], 0.234 nM in assay [2] and 0.065 nM against hKv1.3.
Taken in the same sequence, the figures for `CC[C@H](C)[C@@H]1NC(=O)[C@@H](NC(=O)[C@H](CO)NC(=O)[C@@H](N)CCCNC(=N)N)CSSC[C@@H](C(N)=O)NC(=O)[C@H]([C@@H](C)O)NC(=O)CNC(=O)[C@@H]2CSSC[C@@H]3NC(=O)[C@H](CCCCN)NC(=O)[C@H](Cc4ccccc4)NC(=O)[C@H](C)NC(=O)[C@H]([C@@H](C)O)NC(=O)[C@H](CSSC[C@H](NC(=O)[C@H](Cc4ccccc4)NC(=O)[C@H](CO)NC(=O)[C@H](CC(C)C)NC(=O)[C@H](CCCNC(=N)N)NC(=O)[C@H](Cc4ccc(O)cc4)NC(=O)[C@H](CCCCN)NC(=O)[C@H](CCSC)NC(=O)[C@H](CO)NC(=O)[C@H](Cc4c[nH]cn4)NC(=O)[C@H](CCCCN)NC3=O)C(=O)N[C@@H](CCCNC(=N)N)C(=O)N[C@@H](CCC(=O)O)C(=O)N[C@@H]([C@@H](C)O)C(=O)N2)NC(=O)[C@H](CCCNC(=N)N)NC(=O)[C@H](CO)NC(=O)[C@H](CCCCN)NC(=O)[C@@H]2CCCN2C(=O)[C@H]([C@@H](C)CC)NC(=O)[C@H]([C@@H](C)O)NC(=O)[C@H](CC(=O)O)NC1=O` [[Lys16, Glu30]ShK-amide] were 0.105 nM, 0.144 nM and 0.028 nM.
The like results for `CC[C@H](C)[C@@H]1NC(=O)[C@@H](NC(=O)[C@H](CO)NC(=O)[C@@H](N)CCCNC(=N)N)CSSC[C@@H](C(=O)O)NC(=O)[C@H]([C@@H](C)O)NC(=O)CNC(=O)[C@@H]2CSSC[C@@H]3NC(=O)[C@H](CCCCN)NC(=O)[C@H](Cc4ccccc4)NC(=O)[C@H](C)NC(=O)[C@H]([C@@H](C)O)NC(=O)[C@H](CSSC[C@H](NC(=O)[C@H](Cc4ccccc4)NC(=O)[C@H](CO)NC(=O)[C@H](CC(C)C)NC(=O)[C@H](CCCNC(=N)N)NC(=O)[C@H](Cc4ccc(O)cc4)NC(=O)[C@H](CCCCN)NC(=O)[C@H](CCSC)NC(=O)[C@H](CO)NC(=O)[C@H](Cc4c[nH]cn4)NC(=O)[C@H](CCCCN)NC3=O)C(=O)N[C@@H](CCCNC(=N)N)C(=O)N[C@@H](CCC(=O)O)C(=O)N[C@@H]([C@@H](C)O)C(=O)N2)NC(=O)[C@H](CCCNC(=N)N)NC(=O)[C@H](CO)NC(=O)[C@H](CCCCN)NC(=O)[C@@H]2CCCN2C(=O)[C@H]([C@@H](C)CC)NC(=O)[C@H]([C@@H](C)O)NC(=O)[C@H](CC(=O)O)NC1=O` [[Lys16, Glu30]ShK] were, in that order, 0.032 nM, 0.081 nM and 0.073 nM.
Taken in the same sequence, the figures for `CC[C@H](C)[C@@H]1NC(=O)[C@@H](NC(=O)[C@H](CO)NC(=O)[C@@H](N)CCCNC(=N)N)CSSC[C@@H](C(N)=O)NC(=O)[C@H]([C@@H](C)O)NC(=O)CNC(=O)[C@@H]2CSSC[C@@H]3NC(=O)[C@H](CCCCN)NC(=O)[C@H](Cc4ccccc4)NC(=O)[C@H](C)NC(=O)[C@H]([C@@H](C)O)NC(=O)[C@H](CSSC[C@H](NC(=O)[C@H](Cc4ccccc4)NC(=O)[C@H](CO)NC(=O)[C@H](CC(C)C)NC(=O)[C@H](CCCNC(=N)N)NC(=O)[C@H](Cc4ccc(O)cc4)NC(=O)[C@H](CCCCN)NC(=O)[C@H](Cc4c[nH]cn4)NC(=O)[C@H](CO)NC(=O)[C@H](Cc4c[nH]cn4)NC(=O)[C@H](CCCCN)NC3=O)C(=O)N[C@@H](CCCNC(=N)N)C(=O)N[C@@H](CCCCN)C(=O)N[C@@H]([C@@H](C)O)C(=O)N2)NC(=O)[C@H](CCCNC(=N)N)NC(=O)[C@H](CO)NC(=O)[C@H](CCCCN)NC(=O)[C@@H]2CCCN2C(=O)[C@H]([C@@H](C)CC)NC(=O)[C@H]([C@@H](C)O)NC(=O)[C@H](CC(=O)O)NC1=O` [[Lys16, His21]ShK-amide] were 5.5 nM, 9.25 nM and 0.219 nM.
For `CC[C@H](C)[C@@H]1NC(=O)[C@H](CO)NC(=O)[C@H](Cc2c[nH]cn2)NC(=O)[C@H](CCCCN)NC(=O)[C@@H]2CSSC[C@@H]3NC(=O)[C@H]([C@@H](C)O)NC(=O)[C@H](CCCCN)NC(=O)[C@H](CCCNC(=N)N)NC(=O)[C@H](CSSC[C@H](NC(=O)[C@H](CCCNC(=N)N)NC(=O)[C@H](CO)NC(=O)[C@H](CCCCN)NC(=O)[C@@H]4CCCN4C(=O)[C@H]([C@@H](C)CC)NC(=O)[C@H]([C@@H](C)O)NC(=O)[C@H](CC(=O)O)NC(=O)[C@H]([C@@H](C)CC)NC(=O)[C@@H](NC(=O)[C@H](CO)NC(=O)[C@@H](N)CCCNC(=N)N)CSSC[C@@H](C(N)=O)NC(=O)[C@H]([C@@H](C)O)NC(=O)CNC3=O)C(=O)N[C@@H]([C@@H](C)O)C(=O)N[C@@H](C)C(=O)N[C@@H](Cc3ccccc3)C(=O)N[C@@H](CCCCN)C(=O)N2)NC(=O)[C@H](Cc2ccccc2)NC(=O)[C@H](CO)NC(=O)[C@H](CC(C)C)NC(=O)[C@H](CCCNC(=N)N)NC(=O)[C@H](Cc2ccc(O)cc2)NC(=O)[C@H](CCCCN)NC1=O` [[Lys16, Ile21]ShK-amide], the IC50 in assay [1] was 2.49 nM; in assay [2] it was 5.77 nM; against hKv1.3 it was 0.14 nM.
As to `CC[C@H](C)[C@@H]1NC(=O)[C@@H](NC(=O)[C@H](CO)NC(=O)[C@@H](N)CCCNC(=N)N)CSSC[C@@H](C(N)=O)NC(=O)[C@H]([C@@H](C)O)NC(=O)CNC(=O)[C@@H]2CSSC[C@@H]3NC(=O)[C@H](CCCCN)NC(=O)[C@H](Cc4ccccc4)NC(=O)[C@H](C)NC(=O)[C@H]([C@@H](C)O)NC(=O)[C@H](CSSC[C@H](NC(=O)[C@H](Cc4ccccc4)NC(=O)[C@H](CO)NC(=O)[C@H](CC(C)C)NC(=O)[C@H](CCCNC(=N)N)NC(=O)[C@H](Cc4ccc(O)cc4)NC(=O)[C@H](CCCCN)NC(=O)[C@H](CC(C)C)NC(=O)[C@H](CO)NC(=O)[C@H](Cc4c[nH]cn4)NC(=O)[C@H](CCCCN)NC3=O)C(=O)N[C@@H](CCCNC(=N)N)C(=O)N[C@@H](CCCCN)C(=O)N[C@@H]([C@@H](C)O)C(=O)N2)NC(=O)[C@H](CCCNC(=N)N)NC(=O)[C@H](CO)NC(=O)[C@H](CCCCN)NC(=O)[C@@H]2CCCN2C(=O)[C@H]([C@@H](C)CC)NC(=O)[C@H]([C@@H](C)O)NC(=O)[C@H](CC(=O)O)NC1=O` [[Lys16, Leu21]ShK-amide], the IC50 in assay [1] worked out at 0.889 nM; in assay [2], 0.636 nM; against hKv1.3 it was 0.213 nM.
As to `CC[C@H](C)[C@@H]1NC(=O)[C@@H](NC(=O)[C@H](CO)NC(=O)[C@@H](N)CCCNC(=N)N)CSSC[C@@H](C(=O)O)NC(=O)[C@H]([C@@H](C)O)NC(=O)CNC(=O)[C@@H]2CSSC[C@@H]3NC(=O)[C@H](CCCCN)NC(=O)[C@H](Cc4ccccc4)NC(=O)[C@H](C)NC(=O)[C@H]([C@@H](C)O)NC(=O)[C@H](CSSC[C@H](NC(=O)[C@H](Cc4ccccc4)NC(=O)[C@H](CO)NC(=O)[C@H](CC(C)C)NC(=O)[C@H](CCCNC(=N)N)NC(=O)[C@H](Cc4ccc(O)cc4)NC(=O)[C@H](CCCCN)NC(=O)[C@H](CCSC)NC(=O)[C@H](CO)NC(=O)[C@H](Cc4c[nH]cn4)NC(=O)[C@H](CCCCN)NC3=O)C(=O)N[C@@H](CCCCN)C(=O)N[C@@H](CCCCN)C(=O)N[C@@H]([C@@H](C)O)C(=O)N2)NC(=O)[C@H](CCCNC(=N)N)NC(=O)[C@H](CO)NC(=O)[C@H](CCCCN)NC(=O)[C@@H]2CCCN2C(=O)[C@H]([C@@H](C)CC)NC(=O)[C@H]([C@@H](C)O)NC(=O)[C@H](CC(=O)O)NC1=O` [[Lys16, Lys29]ShK], the IC50 in assay [1] was 0.112 nM; in assay [2], 0.143 nM; at hKv1.3, 0.071 nM.
Taken in the same sequence, the figures for `CC[C@H](C)[C@@H]1NC(=O)[C@@H](NC(=O)[C@H](CO)NC(=O)[C@@H](N)CCCNC(=N)N)CSSC[C@@H](C(N)=O)NC(=O)[C@H]([C@@H](C)O)NC(=O)CNC(=O)[C@@H]2CSSC[C@@H]3NC(=O)[C@H](CCCCN)NC(=O)[C@H](Cc4ccccc4)NC(=O)[C@H](C)NC(=O)[C@H]([C@@H](C)O)NC(=O)[C@H](CSSC[C@H](NC(=O)[C@H](Cc4ccccc4)NC(=O)[C@H](CO)NC(=O)[C@H](CC(C)C)NC(=O)[C@H](CCCNC(=N)N)NC(=O)[C@H](Cc4ccc(O)cc4)NC(=O)[C@H](CCCCN)NC(=O)[C@H](CC[S+](C)[O-])NC(=O)[C@H](CO)NC(=O)[C@H](Cc4c[nH]cn4)NC(=O)[C@H](CCCCN)NC3=O)C(=O)N[C@@H](CCCNC(=N)N)C(=O)N[C@@H](CCCCN)C(=O)N[C@@H]([C@@H](C)O)C(=O)N2)NC(=O)[C@H](CCCNC(=N)N)NC(=O)[C@H](CO)NC(=O)[C@H](CCCCN)NC(=O)[C@@H]2CCCN2C(=O)[C@H]([C@@H](C)CC)NC(=O)[C@H]([C@@H](C)O)NC(=O)[C@H](CC(=O)O)NC1=O` (stereo partly drawn) [[Lys16, Met(O)21]ShK-amide] were 0.24 nM, 0.289 nM and 0.106 nM.

One may read the IC50 as the midpoint of a concentration-inhibition curve.
